Laboratory results published in ChEMBL document CHEMBL1201862, “PubChem BioAssay data set” (2004).
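48-hour exposure; five concentrations; linearly interpolated endpoints. Here, GI50 denotes the concentration required for 50% inhibition of growth.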 Active and inactive are the calls of the source. Rule as the data show it: active = GI50 up to about 1.1 µM and inactive = higher.

What was measured:
Experiment in all cases: DTP human tumour cell line panel, 48 h
[1] = system: MOLT-4
[2] = system: SNB-19
[3] = system: HCT-116
[4] = system: SF-268
[5] = system: MCF7
[6] = system: MDA-MB-435
[7] = system: EKVX
[8] = system: SNB-75
[9] = system: 786-0
[10] = system: MDA-MB-231
[11] = system: A549
[12] = system: NCI-H522
[13] = system: ACHN
[14] = system: HT-29
[15] = system: RPMI-8226
[16] = system: CCRF-CEM
[17] = system: NCI-H23
[18] = system: NCI/ADR-RES
[19] = system: HL-60
[20] = system: HOP-62

Row | Structure (SMILES) | GI50 [1] | GI50 [2] | GI50 [3] | GI50 [4] | GI50 [5] | GI50 [6] | GI50 [7] | GI50 [8] | GI50 [9] | GI50 [10] | GI50 [11] | GI50 [12] | GI50 [13] | GI50 [14] | GI50 [15] | GI50 [16] | GI50 [17] | GI50 [18] | GI50 [19] | GI50 [20]
1 | Cc1cc(C)c(-n2c(-c3ccc(Br)cc3)cs/c2=N\N=C2C=C(C(C)(C)C)C(=O)C(C(C)(C)C)=C2)c(C)c1 | > 100 µM (inactive) | 76.2 µM (inactive) | > 76 µM (inactive) | 69.8 µM (inactive) | > 100 µM (inactive) | > 100 µM (inactive) | > 100 µM (inactive) | 17.5 µM (inactive) | > 100 µM (inactive) | 55.3 µM (inactive) | > 100 µM (inactive) | > 100 µM (inactive) | > 100 µM (inactive) | > 100 µM (inactive) | > 100 µM (inactive) | > 100 µM (inactive) | > 100 µM (inactive) | > 100 µM (inactive) | > 100 µM (inactive) | 32.7 µM (inactive)
2 | C1COCCOP2(N3CC3)=NP(N3CC3)(=NP(N3CC3)(N3CC3)=N2)OCCOCCO1 (stereo not given) | > 100 µM (inactive) | > 100 µM (inactive) | > 100 µM (inactive) | > 100 µM (inactive) | > 100 µM (inactive) | > 100 µM (inactive) | > 100 µM (inactive) | > 100 µM (inactive) | > 100 µM (inactive) | > 100 µM (inactive) | > 100 µM (inactive) | > 100 µM (inactive) | > 100 µM (inactive) | > 100 µM (inactive) | > 100 µM (inactive) | 77.3 µM (inactive) | > 100 µM (inactive) | > 100 µM (inactive) | > 100 µM (inactive) | > 100 µM (inactive)
3 | C=C1C(=O)OC2CC1C(OC(=O)/C=C/c1ccccc1)C/C(C)=C/CC/C(C)=C/CCC2(C)O (stereo not given) | 0.409 µM (active) | 1.89 µM (inactive) | 1.24 µM (inactive) | 1.68 µM (inactive) | 0.714 µM (active) | 1.46 µM (inactive) | 1.81 µM (inactive) | 1.43 µM (inactive) | 1.31 µM (inactive) | 1.66 µM (inactive) | 1.71 µM (inactive) | 0.692 µM (active) | 1.61 µM (inactive) | 1.33 µM (inactive) | 0.433 µM (active) | 0.372 µM (active) | 2.29 µM (inactive) | 1.74 µM (inactive) | 0.308 µM (active) | 1.8 µM (inactive)
4 | O=C(OCCNC(=O)N1CC1)OCCNC(=O)N1CC1 | > 10 µM (inactive) | > 10 µM (inactive) | > 10 µM (inactive) | > 10 µM (inactive) | > 10 µM (inactive) | > 10 µM (inactive) | > 10 µM (inactive) | > 10 µM (inactive) | > 10 µM (inactive) | > 10 µM (inactive) | > 10 µM (inactive) | > 10 µM (inactive) | > 10 µM (inactive) | > 10 µM (inactive) | > 10 µM (inactive) | > 10 µM (inactive) | > 10 µM (inactive) | > 10 µM (inactive) | > 10 µM (inactive) | > 10 µM (inactive)
5 | COC(=O)C1C(=O)C(C(=O)OC)C2CCC1N2C (stereo not given) | 9.08 µM (inactive) | > 100 µM (inactive) | 21.5 µM (inactive) | 96.6 µM (inactive) | 33.6 µM (inactive) | 24.8 µM (inactive) | > 100 µM (inactive) | 35.2 µM (inactive) | 33.7 µM (inactive) | 39 µM (inactive) | > 100 µM (inactive) | > 100 µM (inactive) | 41 µM (inactive) | 35 µM (inactive) | 35 µM (inactive) | 15.8 µM (inactive) | 0.571 µM (active) | 48.6 µM (inactive) | 19.9 µM (inactive) | 36.2 µM (inactive)
6 | O=C(NN=C1NCCCN1)c1ccco1 | > 100 µM (inactive) | > 100 µM (inactive) | > 100 µM (inactive) | > 100 µM (inactive) | > 100 µM (inactive) | > 100 µM (inactive) | > 100 µM (inactive) | > 100 µM (inactive) | > 100 µM (inactive) | > 100 µM (inactive) | > 100 µM (inactive) | > 100 µM (inactive) | > 100 µM (inactive) | > 100 µM (inactive) | > 100 µM (inactive) | > 100 µM (inactive) | > 100 µM (inactive) | > 100 µM (inactive) | > 100 µM (inactive) | > 100 µM (inactive)
7 | CN(C)c1ccc(/C=C2\N=C(NN)NC2=O)cc1 | 8.85 µM (inactive) | > 100 µM (inactive) | 49.8 µM (inactive) | > 100 µM (inactive) | 54.8 µM (inactive) | 58.6 µM (inactive) | 31.9 µM (inactive) | > 100 µM (inactive) | 75.2 µM (inactive) | 59.3 µM (inactive) | 61.8 µM (inactive) | 46.1 µM (inactive) | > 100 µM (inactive) | 31.3 µM (inactive) | 49.3 µM (inactive) | 65.8 µM (inactive) | > 100 µM (inactive) | 82.2 µM (inactive) | 26.7 µM (inactive) | > 100 µM (inactive)
8 | COc1ccc(S(=O)(=O)O)cc1-n1nc(C(=O)Nc2ccccc2)n[n+]1-c1cc(S(=O)(=O)[O-])ccc1OC | > 100 µM (inactive) | > 100 µM (inactive) | > 100 µM (inactive) | > 100 µM (inactive) | > 100 µM (inactive) | > 100 µM (inactive) | > 100 µM (inactive) | > 100 µM (inactive) | > 100 µM (inactive) | > 100 µM (inactive) | > 100 µM (inactive) | > 100 µM (inactive) | > 100 µM (inactive) | > 100 µM (inactive) | > 100 µM (inactive) | > 100 µM (inactive) | > 100 µM (inactive) | > 100 µM (inactive) | > 100 µM (inactive) | > 100 µM (inactive)
